The NIST ThermoML archive (doi:10.1016/j.jct.2004.11.023)

Assay: xn = mol fraction of the nth substance listed
Conditions: 101 kPa, Liquid, Vibrating tube method

c1ccccc1 [benzene] + CC(=O)c1ccccc1
x1 = 1
Conditions	mass density [kg/m3]
298.15 K	873.64
328.15 K	841.51

CC(=O)c1ccccc1 [acetophenone] + c1ccccc1
mass density [kg/m3]
Conditions	298.15 K	328.15 K
x2 = 0	1023.11	997
x2 = 0.1057	1011.02	984.62
x2 = 0.186	1001.34	974.7
x2 = 0.2855	988.94	961.91
x2 = 0.3792	976.58	949.15
x2 = 0.4626	964.98	937.16
x2 = 0.5484	952.49	924.19
x2 = 0.6248	940.71	911.99
x2 = 0.7289	923.84	894.3
x2 = 0.8003	911.56	881.44
x2 = 0.8953	894.23	863.18

CC(=O)c1ccccc1 [acetophenone] + Cc1cccc(C)c1
mass density [kg/m3]
Conditions	298.15 K	328.15 K
x2 = 0	1023.12	996.98
x2 = 0.09263	1007.97	981.88
x2 = 0.1807	993.62	967.52
x2 = 0.2662	979.65	953.61
x2 = 0.3566	964.94	938.89
x2 = 0.4525	949.31	923.26
x2 = 0.538	935.34	909.32
x2 = 0.6252	921.13	895.13
x2 = 0.7339	903.38	877.43
x2 = 0.8479	884.76	858.85
x2 = 0.8943	877.15	851.29

Cc1cc(C)cc(C)c1 [1,3,5-trimethylbenzene] + CC(=O)c1ccccc1
x1 = 1
Conditions	mass density [kg/m3]
298.15 K	861.13
328.15 K	836.63

Cc1ccccc1 [toluene] + CC(=O)c1ccccc1
x1 = 1
Conditions	mass density [kg/m3]
298.15 K	862.27
328.15 K	834.26

CC(=O)c1ccccc1 [acetophenone] + Cc1ccccc1
mass density [kg/m3]
Conditions	298.15 K	328.15 K
x2 = 0	1023.12	997.01
x2 = 0.1016	1008.8	982.57
x2 = 0.1982	994.83	968.48
x2 = 0.257	986.17	959.73
x2 = 0.3576	971	944.41
x2 = 0.453	956.2	929.46
x2 = 0.5369	942.81	915.9
x2 = 0.6366	926.48	899.39
x2 = 0.7154	913.19	885.89
x2 = 0.8198	895.09	867.55
x2 = 0.9019	880.36	852.62

CC(=O)c1ccccc1 [acetophenone] + Cc1cc(C)cc(C)c1
mass density [kg/m3]
Conditions	298.15 K	328.15 K
x2 = 0	1023.13	996.99
x2 = 0.09015	1006.63	980.65
x2 = 0.185	989.75	963.9
x2 = 0.2674	975.43	949.71
x2 = 0.358	960.07	934.46
x2 = 0.4569	943.72	918.28
x2 = 0.5358	930.98	905.65
x2 = 0.6409	914.41	889.25
x2 = 0.7322	900.4	875.38
x2 = 0.836	884.84	860
x2 = 0.8961	876.03	851.31

Cc1cccc(C)c1 [1,3-dimethylbenzene] + CC(=O)c1ccccc1
x1 = 1
Conditions	mass density [kg/m3]
298.15 K	859.88
328.15 K	834.12
